What was measured:
[1] = test system: LNCaP PSMA+ tumor xenografts; assay: Biodistribution of the 99mTc-labeled probe in mice bearing LNCaP and PC3 tumor xenografts; type: in vivo, mouse; settings: LNCaP PSMA+ tumor xenograft, 4 hours following tail-vein injection
Text: Both PSMA+ (LNCaP) and PSMA− (PC3) tumor xenografts were implanted in opposite rear flanks of each mouse. Thus, each mouse served as both a positive and negative control.

LNCaP (PSMA+) cells [2] = assay: Uptake of 99mTc-labeled DTPA-SCN-CTT-54 by cells, as percentage of total probe applied; type: cell-based
Experimental: (§1) Both LNCaP (PSMA+) and PC3 (PSMA−) cells were treated with DTPA-SCN-CTT-54 labeled with pertechnetate (^99mTcO4^−) reduced with SnCl2. At increasing time points at 37° C., cells were washed free of the probe and uptake was determined as a percentage of the total amount of probe applied.

LNCaP (PSMA+) cells [3] = assay: Extent of internalization of the 99mTc-labeled probe; type: cell-based
Experimental: as §1

PSMA = biological target: T1, PSMA (Homo sapiens, UniProt Q04609); assay: Competitive binding experiments: preincubation with unlabeled CTT-54 before the radiolabeled probe; type: cell-based; settings: 0 nM CTT-54, probe 2 hours
T1 construct: endogenous in cells; host or cells: LNCaP
T1 sequence (Q04609 whole entry): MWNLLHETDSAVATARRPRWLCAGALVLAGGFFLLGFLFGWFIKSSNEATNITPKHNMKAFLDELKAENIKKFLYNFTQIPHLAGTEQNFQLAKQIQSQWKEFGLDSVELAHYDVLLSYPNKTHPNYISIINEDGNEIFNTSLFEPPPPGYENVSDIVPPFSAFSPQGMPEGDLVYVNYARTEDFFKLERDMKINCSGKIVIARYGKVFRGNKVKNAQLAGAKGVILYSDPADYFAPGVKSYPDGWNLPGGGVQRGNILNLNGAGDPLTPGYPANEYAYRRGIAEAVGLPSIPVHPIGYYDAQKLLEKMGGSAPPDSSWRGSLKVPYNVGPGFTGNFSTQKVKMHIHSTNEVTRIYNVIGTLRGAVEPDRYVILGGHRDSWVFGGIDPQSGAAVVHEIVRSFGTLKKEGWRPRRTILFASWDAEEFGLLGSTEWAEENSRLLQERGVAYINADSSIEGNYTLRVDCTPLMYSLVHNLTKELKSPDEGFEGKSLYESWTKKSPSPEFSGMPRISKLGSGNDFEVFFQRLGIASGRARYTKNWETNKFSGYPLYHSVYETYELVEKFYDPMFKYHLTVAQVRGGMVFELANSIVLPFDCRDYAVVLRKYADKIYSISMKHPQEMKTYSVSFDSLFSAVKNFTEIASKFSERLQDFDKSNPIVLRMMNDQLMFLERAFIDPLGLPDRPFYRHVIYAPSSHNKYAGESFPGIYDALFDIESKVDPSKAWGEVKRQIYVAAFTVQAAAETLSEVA

% Uptake of the radiolabeled probe without competitor (PSMA) | SMILES | uptake in tumor xenografts (biodistribution) [1] | time for binding to the cell surface (LNCaP (PSMA+) cells [2]) | % uptake (LNCaP (PSMA+) cells [2]; 30 min) | % uptake (LNCaP (PSMA+) cells [2]; 2 hr) | % uptake (LNCaP (PSMA+) cells [2]; 4 hr) | uptake (LNCaP versus PC3 cells) (LNCaP (PSMA+) cells [2]; labeled with pertechnetate (99mTcO4−) reduced with SnCl2, increasing time points at 37° C.) | % internalization (LNCaP (PSMA+) cells [3]; 30 min) | % internalization (LNCaP (PSMA+) cells [3]; 2 hr) | % internalization (LNCaP (PSMA+) cells [3]; 4 hr) | extent of internalization of the probe (LNCaP (PSMA+) cells [3]; preliminary studies) | internalization (LNCaP (PSMA+) cells [3]; within 30 min)
 | O=C(O)CC[C@H](NP(=O)(O)OC[C@H](NC(=O)CC[C@H](NC(=S)Nc1ccc(CC(CN(CCN(CC(=O)O)CC(=O)O)CC(=O)O)N(CC(=O)O)CC(=O)O)cc1)C(=O)O)C(=O)O)C(=O)O (stereo partly drawn) (99mTc complex, metal not drawn) [DTPA-SCN-CTT-54, N-{[(4-{2-[bis(carboxymethyl)amino]-3-[{2-[bis(carboxymethyl)amino]ethyl} (carboxymethyl)amino]propyl}phenyl)amino]carbonothioyl}-L-γ-glutamyl-O-[{[(1S)-1,3-dicarboxypropyl]amino} (hydroxy)phosphoryl]-L-serine] | substantial uptake | ≤ 30 min | 2.30% | 2.94% | 2.34% | exclusive for LNCaP cells | 71.9% | 71.0% | 79.5% | greater than 80% | greater than 70%
4.46% | O=C(O)CC[C@H](NP(=O)(O)OC[C@H](NC(=O)CC[C@H](NC(=S)Nc1ccc(CC(CN(CCN(CC(=O)O)CC(=O)O)CC(=O)O)N(CC(=O)O)CC(=O)O)cc1)C(=O)O)C(=O)O)C(=O)O (stereo partly drawn) [DTPA-SCN-CTT-54, N-{[(4-{2-[bis(carboxymethyl)amino]-3-[{2-[bis(carboxymethyl)amino]ethyl} (carboxymethyl)amino]propyl}phenyl)amino]carbonothioyl}-L-γ-glutamyl-O-[{[(1S)-1,3-dicarboxypropyl]amino} (hydroxy)phosphoryl]-L-serine] |  |  |  |  |  |  |  |  |  |  | 

Reference: patent US9328129B2, “Peptidomimetic inhibitors of PSMA” (Washington State University, priority 2010, dated 2016)
